As usually defined, the IC50 is the midpoint of a concentration-inhibition curve.

Results on 4 compounds are retold here after article PMC8000448, “Inhibitory Effects of Schisandra Lignans on Cytochrome P450s and Uridine 5′-Diphospho-Glucuronosyl Transferases in Human Liver Microsomes” (Pharmaceutics, 2021).

One assay concerns the target T1, CYP2B6 (Homo sapiens, UniProt P20813).
T1 construct: pooled HLMs (0.25 mg/mL); tissue XenoTech H2630; host or cells: pooled human liver microsomes, mixed gender
T1 sequence (P20813 1-491): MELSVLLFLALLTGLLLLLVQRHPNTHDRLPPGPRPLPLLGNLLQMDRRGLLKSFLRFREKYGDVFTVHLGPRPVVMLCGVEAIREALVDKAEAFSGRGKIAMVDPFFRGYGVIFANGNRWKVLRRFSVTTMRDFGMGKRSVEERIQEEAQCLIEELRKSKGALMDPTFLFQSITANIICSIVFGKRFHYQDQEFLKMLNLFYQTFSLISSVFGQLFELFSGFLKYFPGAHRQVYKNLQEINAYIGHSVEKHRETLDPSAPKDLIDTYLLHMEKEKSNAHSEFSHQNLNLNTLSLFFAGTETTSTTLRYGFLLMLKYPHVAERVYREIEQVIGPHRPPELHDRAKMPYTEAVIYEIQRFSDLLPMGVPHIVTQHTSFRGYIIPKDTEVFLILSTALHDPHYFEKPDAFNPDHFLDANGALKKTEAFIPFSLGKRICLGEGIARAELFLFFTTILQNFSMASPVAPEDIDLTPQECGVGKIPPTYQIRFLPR
As to the kind of experiment: CYP2B6 inhibition in HLMs (bupropion). The format is in vitro ADME. The procedure: (§1) Lignans were first dissolved in methanol. […] All microsomal incubations were performed in triplicate.

A further assay deals with T2, UGT1A6 (Homo sapiens, UniProt P19224).
T2 construct: pooled HLMs (0.25 mg/mL); tissue XenoTech H2630; host or cells: pooled human liver microsomes, mixed gender
T2 sequence (P19224 27-532): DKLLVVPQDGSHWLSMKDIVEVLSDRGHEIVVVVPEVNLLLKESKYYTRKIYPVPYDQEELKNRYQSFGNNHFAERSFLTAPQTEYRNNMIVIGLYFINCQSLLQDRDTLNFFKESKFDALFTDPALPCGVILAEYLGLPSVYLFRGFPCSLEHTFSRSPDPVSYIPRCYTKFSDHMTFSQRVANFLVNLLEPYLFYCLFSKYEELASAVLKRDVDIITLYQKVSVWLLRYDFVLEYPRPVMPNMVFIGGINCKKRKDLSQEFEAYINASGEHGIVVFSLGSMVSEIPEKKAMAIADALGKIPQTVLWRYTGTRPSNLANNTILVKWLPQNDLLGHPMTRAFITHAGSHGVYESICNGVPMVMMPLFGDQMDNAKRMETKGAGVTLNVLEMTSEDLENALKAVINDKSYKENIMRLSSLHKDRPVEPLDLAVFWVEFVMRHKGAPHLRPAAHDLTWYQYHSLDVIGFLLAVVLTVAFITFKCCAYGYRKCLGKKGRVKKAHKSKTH
As to the kind of experiment: UGT1A6 inhibition in HLMs (N-acetylserotonin). It counts as in vitro ADME. The note with it: average in triplicate, read-out: IC50, UGT 1A6. How it is done: (§2) The inhibitory potential of six lignans on six UGT activities was evaluated using the previously developed cocktail method with slight modifications. […] These substrates are known to be selective for each UGT isoforms.

The next assay addresses CYP2C19 (Homo sapiens, UniProt P33261). As to the kind of experiment: CYP2C19 inhibition in HLMs (S-mephenytoin).
The target of another assay is T3, CYP1A2 (Homo sapiens, UniProt P05177).
T3 construct: pooled HLMs (0.25 mg/mL); tissue XenoTech H2630; host or cells: pooled human liver microsomes, mixed gender
T3 sequence (P05177 1-516): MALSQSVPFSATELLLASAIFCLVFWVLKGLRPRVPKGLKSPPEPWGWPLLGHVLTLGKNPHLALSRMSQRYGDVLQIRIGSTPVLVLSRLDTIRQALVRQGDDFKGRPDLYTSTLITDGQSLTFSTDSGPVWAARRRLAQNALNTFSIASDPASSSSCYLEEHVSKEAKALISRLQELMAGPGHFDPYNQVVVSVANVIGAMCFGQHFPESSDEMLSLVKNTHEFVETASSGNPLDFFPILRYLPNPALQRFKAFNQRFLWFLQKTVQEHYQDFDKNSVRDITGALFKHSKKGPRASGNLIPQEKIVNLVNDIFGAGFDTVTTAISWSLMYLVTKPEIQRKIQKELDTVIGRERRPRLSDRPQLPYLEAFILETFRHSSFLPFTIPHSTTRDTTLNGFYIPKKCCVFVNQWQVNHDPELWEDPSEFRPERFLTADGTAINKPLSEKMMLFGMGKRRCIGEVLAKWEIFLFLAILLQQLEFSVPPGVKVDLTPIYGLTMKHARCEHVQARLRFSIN
The experiment in a line: CYP1A2 inhibition in HLMs (phenacetin, cocktail, IC50 and IC50 shift). It counts as in vitro ADME. The procedure:
as §1

For another assay, the target named is T4, UGT1A9 (Homo sapiens, UniProt O60656).
T4 construct: pooled HLMs (0.25 mg/mL); tissue XenoTech H2630; host or cells: pooled human liver microsomes, mixed gender
T4 sequence (O60656 26-530): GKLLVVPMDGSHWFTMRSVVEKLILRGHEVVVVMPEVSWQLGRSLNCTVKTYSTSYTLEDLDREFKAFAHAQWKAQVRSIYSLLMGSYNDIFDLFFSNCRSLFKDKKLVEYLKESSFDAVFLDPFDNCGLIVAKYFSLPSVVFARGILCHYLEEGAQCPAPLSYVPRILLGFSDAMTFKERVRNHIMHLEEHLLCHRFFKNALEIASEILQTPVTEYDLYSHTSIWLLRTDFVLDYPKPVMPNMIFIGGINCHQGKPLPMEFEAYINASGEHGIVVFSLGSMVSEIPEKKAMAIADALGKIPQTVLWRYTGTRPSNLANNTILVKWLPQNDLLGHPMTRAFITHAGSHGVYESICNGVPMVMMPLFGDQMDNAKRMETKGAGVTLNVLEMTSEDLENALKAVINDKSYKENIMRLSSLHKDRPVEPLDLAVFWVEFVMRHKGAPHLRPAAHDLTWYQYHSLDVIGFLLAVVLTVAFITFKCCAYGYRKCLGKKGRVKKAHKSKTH
As to the kind of experiment: UGT1A9 inhibition in HLMs (mycophenolic acid). It counts as in vitro ADME. The note with it: average in triplicate, read-out: IC50, UGT 1A9. How it is done: as §2

The target of the next assay is CYP2D6 (Homo sapiens, UniProt P10635). As to the kind of experiment: CYP2D6 inhibition in HLMs (dextromethorphan).
Setting [1] is: 30 min pre-incubation with NADPH generating system, read-out: IC50 TDI, CYP2B6.
The mark [2] stands for this setting: reversible inhibition, read-out: IC50 RI, CYP2B6.
[3] abbreviates: IC50 TDI, 30 min pre-incubation with NADPH generating system.
[4] abbreviates: HLMs, 30 min pre-incubation with NADPH generating system, read-out: IC50 TDI, CYP1A2.
Setting [5] is: HLMs, reversible inhibition, no 30 min NADPH pre-incubation, read-out: IC50 RI, CYP1A2.

Where two headings read alike, the source gives them in different places.

Sequence of CYP2D6 (P10635 whole entry): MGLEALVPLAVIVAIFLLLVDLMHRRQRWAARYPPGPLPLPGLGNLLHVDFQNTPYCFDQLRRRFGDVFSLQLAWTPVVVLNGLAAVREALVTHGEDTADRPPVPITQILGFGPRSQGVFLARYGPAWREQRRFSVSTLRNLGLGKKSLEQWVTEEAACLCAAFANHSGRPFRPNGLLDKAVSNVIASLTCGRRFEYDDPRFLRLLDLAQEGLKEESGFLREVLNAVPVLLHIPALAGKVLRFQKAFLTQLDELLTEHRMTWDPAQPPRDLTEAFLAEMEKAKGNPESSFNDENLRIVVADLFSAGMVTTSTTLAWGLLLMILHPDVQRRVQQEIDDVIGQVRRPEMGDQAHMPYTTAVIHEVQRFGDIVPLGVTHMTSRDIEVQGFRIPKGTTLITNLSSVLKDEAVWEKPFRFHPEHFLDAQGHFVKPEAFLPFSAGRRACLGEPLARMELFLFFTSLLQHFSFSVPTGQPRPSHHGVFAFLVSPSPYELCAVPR
Sequence of CYP2C19 (P33261 whole entry): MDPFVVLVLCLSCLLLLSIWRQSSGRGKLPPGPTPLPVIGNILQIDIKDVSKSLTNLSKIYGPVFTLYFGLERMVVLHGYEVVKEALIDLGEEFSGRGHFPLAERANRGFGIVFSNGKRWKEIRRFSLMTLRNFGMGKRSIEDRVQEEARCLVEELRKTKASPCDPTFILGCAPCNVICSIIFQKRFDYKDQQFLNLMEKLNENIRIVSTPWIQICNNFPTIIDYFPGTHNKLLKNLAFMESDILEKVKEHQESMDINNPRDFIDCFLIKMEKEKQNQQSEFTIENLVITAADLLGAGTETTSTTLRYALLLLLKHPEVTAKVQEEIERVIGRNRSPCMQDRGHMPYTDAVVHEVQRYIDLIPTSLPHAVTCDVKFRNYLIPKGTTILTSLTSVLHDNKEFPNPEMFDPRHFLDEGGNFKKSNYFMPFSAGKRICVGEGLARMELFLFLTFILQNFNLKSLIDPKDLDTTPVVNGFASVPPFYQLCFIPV
Description for CYP2C19: (§3) Lignans were first dissolved in methanol. The final organic solvent concentration in the incubation media was ≤1.0% (v/v). The microsomal incubation was conducted using two cocktail sets containing non-interactive substrates: set A containing phenacetin, bupropion, amodiaquine, diclofenac, S-mephenytoin, and dextromethorphan as substrates for CYP1A2, CYP2B6, CYP2C8, CYP2C9, CYP2C19, and CYP2D6, respectively; and set B containing coumarin and chlorzoxazone as substrates for CYP2A6 and CYP2E1, and midazolam, nifedipine, and testosterone as substrates for CYP3A4 (Table 1). These substrates are known to be selective for each P450 isoforms. Incubation mixtures containing potassium phosphate buffer (0.1 M, pH 7.4), pooled HLMs (0.25 mg/mL), P450 probe substrate cocktails, and lignan (0~50 μM) were pre-incubated at 37 °C (5 min). Following pre-incubation, an NADPH generating system (1.3 mM NADP^+, 3.3 mM G6P, 1 unit/mL G6PDH, and 3.3 mM MgCl2) was added to initiate the reaction, and further incubated for 10 min. The reaction was quenched with 50 μL of cold acetonitrile containing internal standard (IS; 7 nM trimipramine). After centrifugation at 14,000 rpm (5 min at 4 °C), aliquots of supernatants were filtered through a 0.2 μm membrane filter and were measured by liquid chromatography-tandem mass spectrometry (LC-MS/MS). All microsomal incubations were performed in triplicate.
Description for CYP2D6: as §3

Consider `COc1cc2c(c(OC)c1OC)-c1c(cc3c(c1OC)OCO3)C[C@H](C)[C@](C)(O)[C@H]2OC(=O)c1ccccc1` [Gomisin C, gomisin C], for which the concentration for half-maximal inhibition (IC50) is greater than 50 µM on CYP2B6 (setting [1]); 33.1 µM on CYP2B6 (setting [2]); greater than 50 µM on UGT1A6; 16.3 µM against CYP2C19 (IC50 RI, reversible inhibition); 20.4 µM against CYP2C19 (setting [3]); greater than 50 µM at CYP1A2 (setting [4]). In addition, the IC50 at CYP1A2 (setting [5]) was greater than 50 µM; at UGT1A9, greater than 50 µM; on CYP2D6 (IC50 RI, reversible inhibition), greater than 50 µM; against CYP2D6 (setting [3]), greater than 50 µM.

With `COc1cc2c(c(OC)c1OC)-c1c(cc3c(c1OC)OCO3)C[C@H](C)[C@H](C)C2` [Gomisin N, gomisin N], the IC50 on CYP2B6 (setting [1]) is greater than 50 µM; at CYP2B6 (setting [2]), 38.3 µM; on UGT1A6, greater than 50 µM; against CYP2C19 (IC50 RI, reversible inhibition) it was 10.4 µM; against CYP2C19 (setting [3]) it was 3.5 µM; at CYP1A2 (setting [4]), greater than 50 µM. For the same compound, the IC50 at CYP1A2 (setting [5]) is greater than 50 µM; at UGT1A9, greater than 50 µM; at CYP2D6 (IC50 RI, reversible inhibition), 42 µM; on CYP2D6 (setting [3]), greater than 50 µM.

In the case of `COc1cc2c(c(OC)c1OC)-c1c(cc(OC)c(OC)c1OC)C[C@](C)(O)[C@@H](C)C2` [Schisandrin, schisandrin], the IC50 on CYP2B6 (setting [1]) is greater than 50 µM; on CYP2B6 (setting [2]), 14.7 µM; on UGT1A6, greater than 50 µM; against CYP2C19 (IC50 RI, reversible inhibition), 5.3 µM; on CYP2C19 (setting [3]), 46.1 µM; on CYP1A2 (IC50 RI, CYP1A2, HLMs, reversible inhibition, no 30 min NADPH pre-incubation), 4 µM. Further, the IC50 is greater than 50 µM on CYP1A2 (IC50 TDI, CYP1A2, HLMs, 30 min pre-incubation with NADPH generating system); greater than 50 µM on UGT1A9; 40.2 µM on CYP2D6 (IC50 RI, reversible inhibition); greater than 50 µM against CYP2D6 (setting [3]).

Turning to `COc1c2c(cc3c1-c1c(cc4c(c1OC)OCO4)C[C@H](C)[C@H](C)C3)OCO2` [Wuweizisu C, wuweizisu C], the IC50 is 1.4 µM at CYP2B6 (setting [1]); 2.9 µM at CYP2B6 (setting [2]); greater than 50 µM at UGT1A6; 2.7 µM on CYP2C19 (IC50 RI, reversible inhibition); 1.5 µM on CYP2C19 (setting [3]); 22.4 µM on CYP1A2 (setting [4]). The IC50 on CYP1A2 (setting [5]) was 25.6 µM; at UGT1A9, greater than 50 µM; on CYP2D6 (IC50 RI, reversible inhibition) it was 20.3 µM; on CYP2D6 (setting [3]), 28.2 µM.
